pIC50: −log10 of the molar value. Where a name gives a salt, the structure may show the parent alone.
These compounds were tested against Proton Pump (H^+/K^+-ATPase) (Sus scrofa, UniProt P19156) (assay: Inhibitory effects on proton pump (H^+/K^+-ATPase) activity). Details: hog gastric vesicles; K^+ stimulated H^+/K^+-ATPase activity; 30 minutes at 37° C.
Sequence of Proton Pump (H^+/K^+-ATPase) (P19156 2-1034 limits assumed): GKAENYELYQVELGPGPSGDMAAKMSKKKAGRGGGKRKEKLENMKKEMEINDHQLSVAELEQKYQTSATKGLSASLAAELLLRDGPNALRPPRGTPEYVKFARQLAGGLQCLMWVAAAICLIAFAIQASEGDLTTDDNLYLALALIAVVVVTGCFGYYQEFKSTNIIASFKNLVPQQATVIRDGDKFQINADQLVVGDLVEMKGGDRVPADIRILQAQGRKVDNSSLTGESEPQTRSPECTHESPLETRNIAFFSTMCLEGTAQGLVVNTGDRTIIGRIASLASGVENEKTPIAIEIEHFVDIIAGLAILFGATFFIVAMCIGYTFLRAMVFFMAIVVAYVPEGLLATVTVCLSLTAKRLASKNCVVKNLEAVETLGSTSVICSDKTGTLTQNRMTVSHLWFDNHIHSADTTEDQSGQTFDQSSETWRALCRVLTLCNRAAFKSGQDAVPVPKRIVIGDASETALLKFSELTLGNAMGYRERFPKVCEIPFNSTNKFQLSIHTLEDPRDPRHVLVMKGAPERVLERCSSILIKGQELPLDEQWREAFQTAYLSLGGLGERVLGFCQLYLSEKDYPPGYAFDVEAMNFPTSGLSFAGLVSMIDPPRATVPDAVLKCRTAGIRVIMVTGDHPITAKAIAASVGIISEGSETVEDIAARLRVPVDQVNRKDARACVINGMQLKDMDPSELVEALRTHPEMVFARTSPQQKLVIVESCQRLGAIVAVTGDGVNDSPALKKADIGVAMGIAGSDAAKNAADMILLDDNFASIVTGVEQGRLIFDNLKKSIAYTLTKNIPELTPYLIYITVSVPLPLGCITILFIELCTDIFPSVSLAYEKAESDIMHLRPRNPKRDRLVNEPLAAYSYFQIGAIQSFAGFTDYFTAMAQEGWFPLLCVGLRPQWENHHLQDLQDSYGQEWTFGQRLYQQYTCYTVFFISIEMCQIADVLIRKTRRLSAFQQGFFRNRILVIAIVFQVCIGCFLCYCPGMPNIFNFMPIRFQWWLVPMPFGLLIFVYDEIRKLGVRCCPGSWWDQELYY
Sequence of Proton Pump (H^+/K^+-ATPase) (P18434 whole entry partner): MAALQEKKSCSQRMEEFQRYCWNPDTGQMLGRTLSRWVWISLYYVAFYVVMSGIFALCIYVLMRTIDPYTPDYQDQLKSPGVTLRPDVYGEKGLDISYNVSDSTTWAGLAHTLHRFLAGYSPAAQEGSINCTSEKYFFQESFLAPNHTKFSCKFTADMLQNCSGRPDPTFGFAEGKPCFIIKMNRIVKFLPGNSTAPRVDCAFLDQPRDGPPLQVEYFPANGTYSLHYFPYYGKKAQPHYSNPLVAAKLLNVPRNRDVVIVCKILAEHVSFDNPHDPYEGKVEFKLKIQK
Format: biochemical
`C=CCn1c(C)c(C)c2ccnc(N3CCc4ccccc4C3)c21` [Example 491, 1-allyl-7-(1,2,3,4-tetrahydroisoquinolin-2-yl)-2,3-dimethyl-1H-pyrrolo[2,3-c]pyridine maleate] gave a pIC50 of 8.70.
With `C=CCn1c(C)c(C)c2ccnc(N3CCc4ccccc4C3)c21` [Example 492, 1-allyl-7-(1,2,3,4-tetrahydroisoquinolin-2-yl)-2,3-dimethyl-1H-pyrrolo[2,3-c]pyridine phosphate] the pIC50 was 8.15.
`C=CCn1c(C)c(C)c2ccnc(N3CCc4ccccc4C3)c21` [Example 493, 1-allyl-7-(1,2,3,4-tetrahydroisoquinolin-2-yl)-2,3-dimethyl-1H-pyrrolo[2,3-c]pyridine benzenesulfonate] showed a pIC50 of 8.40.
`C=CCn1c(C)c(C)c2ccnc(N3CCc4ccccc4C3)c21` [Example 494, 1-allyl-7-(1,2,3,4-tetrahydroisoquinolin-2-yl)-2,3-dimethyl-1H-pyrrolo[2,3-c]pyridine hydrobromide] was tested, and the pIC50 was 8.40.
Work on `COCn1c(C)c(C)c2ccnc(N3CCc4ccccc4C3)c21` [Example 496, 1-methoxymethyl-7-(1,2,3,4-tetrahydroisoquinolin-2-yl)-2,3-dimethyl-1H-pyrrolo[2,3-c]pyridine hydrochloride] yielded a pIC50 of 6.64.
`Cc1c(C)n(CC2CC2)c2c(N3CCc4ccccc4C3)nccc12` [Example 497, 1-cyclopropylmethyl-7-(1,2,3,4-tetrahydroisoquinolin-2-yl)-2,3-dimethyl-1H-pyrrolo[2,3-c]pyridine hydrochloride] gave a pIC50 of 6.49.
For `COCCn1c(C)c(C)c2ccnc(N3CCc4ccccc4C3)c21` [Example 499, 1-(2-methoxyethyl)-7-(1,2,3,4-tetrahydroisoquinolin-2-yl)-2,3-dimethyl-1H-pyrrolo[2,3-c]pyridine hydrochloride], the pIC50 was 7.19.
`Cc1c(C)n(Cc2ccc(C(F)(F)F)cc2)c2c(N3CCc4ccccc4C3)nccc12` [Example 500, 7-(1,2,3,4-tetrahydroisoquinolin-2-yl)-1-(4-trifluoromethylbenzyl)-2,3-dimethyl-1H-pyrrolo[2,3-c]pyridine hydrochloride] gave a pIC50 of 6.57.
With `Cc1c(C)n(Cc2ccc3ccccc3c2)c2c(N3CCc4ccccc4C3)nccc12` [Example 502, 1-(naphthalen-2-ylmethyl)-7-(1,2,3,4-tetrahydroisoquinolin-2-yl)-2,3-dimethyl-1H-pyrrolo[2,3-c]pyridine hydrochloride] the pIC50 was 6.52.
`CCOCCn1c(C)c(C)c2ccnc(N3CCc4ccccc4C3)c21` [Example 503, 1-(2-ethoxyethyl)-7-(1,2,3,4-tetrahydroisoquinolin-2-yl)-2,3-dimethyl-1H-pyrrolo[2,3-c]pyridine hydrochloride] gave a pIC50 of 6.80.
Work on `C#CCn1c(C)c(C)c2ccnc(N3CCc4ccccc4C3)c21` [Example 506, 1-(prop-2-ynyl)-7-(1,2,3,4-tetrahydroisoquinolin-2-yl)-2,3-dimethyl-1H-pyrrolo[2,3-c]pyridine hydrochloride] yielded a pIC50 of 7.16.
In the case of `C=CCCn1c(C)c(C)c2ccnc(N3CCc4ccccc4C3)c21` [Example 508, 1-(but-3-enyl)-7-(1,2,3,4-tetrahydroisoquinolin-2-yl)-2,3-dimethyl-1H-pyrrolo[2,3-c]pyridine hydrochloride], the pIC50 was 6.49.
With `COc1cccc(Cn2c(C)c(C)c3ccnc(N4CCc5ccccc5C4)c32)c1` [Example 510, 1-(3-methoxybenzyl)-7-(1,2,3,4-tetrahydroisoquinolin-2-yl)-2,3-dimethyl-1H-pyrrolo[2,3-c]pyridine hydrochloride] the pIC50 was 7.25.
With `Cc1c(C)n(CCc2ccc(S(C)(=O)=O)cc2)c2c(N3CCc4ccccc4C3)nccc12` [Example 512, 1-[2-(4-methylsulfonylphenyl)ethyl]-7-(1,2,3,4-tetrahydroisoquinolin-2-yl)-2,3-dimethyl-1H-pyrrolo[2,3-c]pyridine hydrochloride] the pIC50 was 6.89.
